Our source for the CC50 and EC50 values is PMC5318888, “SAMHD1 enhances nucleoside-analogue efficacy against HIV-1 in myeloid cells” (Scientific Reports, 2017).

In general, CC50 refers to the concentration that lowers cell viability or growth by half.

Structures are written as SMILES.

Common to all, as to format: cell-based
A short description of data set [1]: Cytotoxicity, live cells by flow cytometry, THP-1 cells (PMA−/PMA+). The note with it: human, CC50. As for the experimental part:
(§1) H9, Jurkat and undifferentiated U937 and THP-1 (PMA^−) cells (6 × 10^5 cells/mL) were treated with increasing concentrations of nucleoside analogues (0–200 μM; except CFB, 0–1.6 μM) and incubated at 37 °C in 5% CO2 for 48 h. Medium was then replaced and cells were further incubated for 72 h. Non-dividing U937 and THP-1 (PMA^+) cells (6 × 10^5 cells/mL) were differentiated by addition of 100 nM phorbol-12-myristate-13-acetate (PMA^+) for 48 h and then treated with increasing concentrations of nucleoside analogues as described above. The percentage of live cells was determined by flow cytometry using Live/Dead fixable blue-fluorescent dyes (Invitrogen) and a Fortessa X20 analyser (BD Biosciences). Data were analysed using the FlowJo software suite.
(§2) The cytotoxic concentration of nucleoside analogue that inhibits cell viability by 50% (CC50) and the effective concentration of nucleoside analogue that inhibits infection of cells by 50% (EC50) were calculated for each independent experiment by non-linear regression using GraphPad Prism v6.00 for Windows (GraphPad Software, San Diego, CA). Non-ambiguous values were subjected to a replicate test to calculate confidence intervals of 95% (95% CI). CC50 and EC50 values were determined for at least two independent experiments for each nucleoside analogue and a selectivity index (SI) also calculated, (SI = CC50/EC50). EC50 values for each replicate were used to perform an unpaired two-tailed t-test to determine significant differences between U937 cells expressing SAMHD1 wt or HD206-7AA mutant and THP-1 cells expressing Vpx or untransduced cells. P values of <0.005 were considered statistically significant.
A general note: In flow cytometry, cells or beads pass a laser one at a time.

Data set [2] relates to THP-1 cells. Described as above. The conditions noted are these: human, 48 h. As for the experimental part: as §1, §2
Data set [3] in a line: in vitro. The note with it: human. As for the experimental part:
as §1, §2

Data set [4] deals with HIV-1-GFP. Kind of data set: Anti-HIV-1 activity in U937 cells transduced with wt SAMHD1 or HD206-7AA mutant. As for the experimental part: (§3) Antiviral assays were further performed in monocytoid cells transduced with YFP-expressing VLPs containing WT SAMHD1, HD206-7AA or Vpx. Briefly, U937 cells (6 × 10^5 cells/mL) were transduced with WT SAMHD1-YFP or HD206-7AA-YFP VLPs by spinoculation at 800 × g for 90 min in the presence of 1 μg/mL polybrene. Similarly, THP-1 cells (6 × 10^5 cells/mL) were transduced with Vpx-YFP VLPs by spinoculation at 800 × g for 90 min in the presence of 1 μg/mL polybrene. Cells were incubated at 37 °C in 5% CO2 and after 72 h, PMA^+ cells (6 × 10^5 cells/mL) were treated with 100 nM PMA and PMA^− cells (7.5 × 10^4 cells/mL) were left untreated. Cells were then incubated at 37 °C in 5% CO2 for 48 h. Nucleoside analogues were added at increasing concentrations (0–200 μM; except CFB, 0–1.6 μM) and cells were further incubated for 48 h. PMA^− cells were then infected with HIV-1-GFP by spinoculation at 800 × g for 90 min in the presence of 1 μg/mL polybrene, PMA^+ cells were infected with HIV-1-GFP in the presence of 1 μg/mL polybrene only. Cells were incubated for 72 h at 37 °C in 5% CO2 and then analysed by two-colour flow cytometry using a Fortessa X20 analyser (BD Biosciences). Data were analysed using the FlowJo software suite.
as §2

Data set [5] relates to HIV-1-GFP. The experiment in a line: microbe, parasite or virus in culture. As for the experimental part: H9 and Jurkat cells (6 × 10^5 cells/mL) were treated with increasing concentrations of nucleoside analogues (0–200 μM; except CFB, 0–1.6 μM) and incubated for 4 h at 37 °C in 5% CO2. Cells were then infected with HIV-1-GFP by spinoculation at 800 × g for 90 min in the presence of 1 μg/mL polybrene, and further incubated at 37 °C in 5% CO2 for 72 h. Undifferentiated U937 and THP-1 (PMA^−) cells (6 × 10^5 cells/mL) were treated with increasing concentrations of nucleoside analogues (0–200 μM; except CFB, 0–1.6 μM) and incubated at 37 °C in 5% CO2 for 48 h. Cells were then infected with HIV-1-GFP by spinoculation at 800 × g for 90 min in the presence of 1 μg/mL polybrene, and further incubated at 37 °C in 5% CO2 for 72 h. Non-dividing U937 and THP-1 (PMA^+) cells (6 × 10^5 cells/mL) were differentiated by addition of 100 nM PMA (PMA^+) for 48 h and treated with increasing concentrations of nucleoside analogues as described above. Cells were then infected with HIV-1-GFP in the presence of 1 μg/mL polybrene and further incubated at 37 °C in 5% CO2 for 72 h. The percentage of GFP^+cells was determined by one-colour flow cytometry using a Fortessa X20 analyser (BD Biosciences) and the data analysed using the FlowJo software suite.
Non-ambiguous values were subjected to a replicate test to calculate confidence intervals of 95% (95% CI). CC50 and EC50 values were determined for at least two independent experiments for each nucleoside analogue and a selectivity index (SI) also calculated, (SI = CC50/EC50). EC50 values for each replicate were used to perform an unpaired two-tailed t-test to determine significant differences between U937 cells expressing SAMHD1 wt or HD206-7AA mutant and THP-1 cells expressing Vpx or untransduced cells. P values of <0.005 were considered statistically significant.

The nature of data set [6]: Cytotoxicity, live cells by flow cytometry, H9 cells. The conditions noted are these: human. As for the experimental part:
as §1, §2

Data set [7] can be described thus: Cytotoxicity, live cells by flow cytometry, Jurkat cells. The note with it: human. As for the experimental part:
as §1, §2

Data set [8] concerns HIV-1-GFP. The experiment in a line: Anti-HIV-1 activity in THP-1 cells with or without Vpx transduction. As for the experimental part: as §3, §2
The nature of data set [9]: Cytotoxicity, live cells by flow cytometry, U937 cells (PMA−/PMA+). The conditions noted are these: human, CC50. Here is the method: as §1, §2
Data set [10] has as its system U937 cells. The description is as above. The note with it: human, 48 h. As for the experimental part: as §1, §2

Regarding `O=c1[nH]cnc2c1ncn2[C@H]1CC[C@@H](CO)O1` [ddI, 2′,3′-dideoxyinosine], the 50% cytotoxic concentration (CC50) at 48 h in data set [1], in [3], in [6], in data set [7] and in data set [9] was over 200 µM each time. The CC50 in data set [2] and in data set [10] was over 200 µM in each case. Besides, the EC50 in data set [4] (Human immunodeficiency virus 1, U-937, read-out: EC50 [95% CI], U937 PMA+, HD206/7AA+ population) amounted to 8.79 µM; in data set [4] (Human immunodeficiency virus 1, U-937, read-out: EC50 [95% CI], U937 PMA+, SAMHD1+ population), 0.109 µM; in data set [4] (Human immunodeficiency virus 1, U-937, read-out: EC50 [95% CI], U937 PMA−, HD206/7AA+ population) it was 55.1 µM; in [4] (Human immunodeficiency virus 1, U-937, read-out: EC50 [95% CI], U937 PMA−, SAMHD1+ population), 23.7 µM; in [5] (Human immunodeficiency virus 1, THP-1, read-out: EC50 [95% CI], THP1 PMA+), 0.093 µM; in data set [5] (Human immunodeficiency virus 1, THP-1, read-out: EC50 [95% CI], THP1 PMA−) it was 2.03 µM. For the same compound, the EC50 came to 2.45 µM in [5] (Human immunodeficiency virus 1, U-937, read-out: EC50 [95% CI], U937 PMA+); 45.8 µM in [5] (Human immunodeficiency virus 1, U-937, read-out: EC50 [95% CI], U937 PMA−); 4.34 µM in data set [8] (Human immunodeficiency virus 1, THP-1, read-out: EC50 [95% CI], THP1 PMA+, Vpx+); 0.079 µM in data set [8] (Human immunodeficiency virus 1, THP-1, read-out: EC50 [95% CI], THP1 PMA+, Vpx−); 2.73 µM in [8] (Human immunodeficiency virus 1, THP-1, read-out: EC50 [95% CI], THP1 PMA−, Vpx+); 1.04 µM in [8] (Human immunodeficiency virus 1, THP-1, read-out: EC50 [95% CI], THP1 PMA−, Vpx−).
